From patent US4820727A, “N-acyl-N-naphthoylglycines as aldose reductase inhibitors” (American Home Products Corporation, priority 1987, dated 1989)
Values belong to the compound of their own block, whether it stands above or below them.

How the values were obtained:
aldose reductase = target: T1, aldose reductase (Bos taurus, UniProt P16116); test: In vitro aldose reductase inhibition (modified Hayman and Kinoshita procedure, enzyme from bovine lens); assay type: biochemical; conditions: for inhibition at 0.04 µM: read-out: % Inhibition IN VITRO 4 × 10^-8 M; for inhibition at 10 µM: read-out: % Inhibition IN VITRO 10^-5 M; for inhibition at 1 µM: read-out: % Inhibition IN VITRO 10^-6 M; for inhibition at 0.1 µM: read-out: % Inhibition IN VITRO 10^-7 M
T1 construct: preparation of the enzyme from bovine lens; from tissue; host or cells: bovine lens
Text: In the present case the procedure of Hayman and Kinoshita was modified in that the final chromatography step was omitted in the preparation of the enzyme from bovine lens.

[1] = tested on: Sciatic Nerve Polyol Accumulation; test: Two-Week Streptozocin-Diabetic Rat Model, % lowering of sciatic nerve polyol accumulation; assay type: in vivo, Sprague-Dawley rats; conditions: gavage, 14 days
[2] = tested on: Sciatic Nerve Polyol Accumulation; test: as above; assay type: in vivo, Sprague-Dawley rats; conditions: gavage, 14 days; remark: listed apart in the source
Text: A second in vivo model examined the effect of the compounds of the present invention on sorbitol accumulation in the tissues of 14-day streptozocin (STZ) (Upjohn) diabetic rats.
In each of the studies male Sprague-Dawley rats from Charles River Labs, Kingston, NY, weighing 200 to 250 g, were used. The animals were weighed and observed for 5 days prior to the start of the study.
In each study the rats were randomly assigned by weight into groups of 15 animals except for group I which contained 8 animals. The groups were treated as follows:
Group II: STZ, 110 mg/kg i.p.
Group IV: STZ, 110 mg/kg i.p. followed by various doses of a compound of the present invention given by gavage for 14 days, beginning on the day of induction of diabetes.
Following an overnight fast (water ad lib) the animals in groups II-IV were given by i.p. injection 110 mg STZ per kg body weight. The STZ was dissolved in cold citric acid, 0.03M, pH 4.5 and injected within 5 minutes of being dissolved. Control rats (group I) were injected with buffer only. One hour following the injection, standard laboratory chow (Rodent lab chow 5001, Purina) was placed in the cages.
Two days after STZ injection plasma glucose levels (from the tail vein) were determined following a 4 hour fast. Excluded from the study were animals whose plasma glucose was below 300 mg/dl. Control animals with plasma glucose levels greater than 200 mg/dl were also excluded.
On the morning of the 14th day following STZ injection the animals were fasted 4 hours prior to sacrificing by decapitation. The blood was collected into heparin containing tubes and placed on ice. Both lenses and sciatic nerves were removed immediately, weighed, frozen, and stored at -20° C. until analyzed for sorbitol. The RBCs were collected by centrifugation, the plasma was removed and the cells were washed once with 10 volumes of cold saline. The washed packed RBCs were divided into 1 mL aliquots, extracted with cold perchloric acid and the acid extracts were stored at -20° C. until analyzed for sorbitol.

dulcitol accumulation = test: Galactosemic rats, % lowering of dulcitol (galactitol) accumulation in vivo; set-up: species or system Sprague-Dawley rats; conditions: for % Lowering dulcitol accumulation IN VIVO, D: diaphragm; for % Lowering dulcitol accumulation IN VIVO, D / % Lowering dulcitol accumulation IN VIVO, L: 4 days; for % Lowering dulcitol accumulation IN VIVO, L: lens
Text: Such experiments are exemplified hereinbelow after the listing of the following general comments pertaining to these experiments:
(a) Four or more groups of six male rats, 50-70 g, Sprague-Dawley strain, were used. The first group, the control group, was fed a mixture of laboratory chow (rodent Laboratory Chow, Purina) and glucose at 20% (w/w %) concentration. […] The test compound was either admixed to the diet or administered by gavage. In experiments involving compound administration in the diet, the average dose administered was calculated from the actual food intake of the animals in each group. The concentration of galactose in the diet of the treated groups was the same as that for the untreated galactosemic group.
(b) After four days, the animals were killed by decapitation. The eyeballs were removed and punctured with a razor blade; the freed lenses were rolled gently on filter paper and weighed. The sciatic nerves were dissected as completely as possible and weighed. Both tissues when frozen can be kept up to two weeks before being analyzed for galactitol.
Only two minor reagent changes were made: (a) the rinsing mixture was an aqueous 5% (w/v) trichloroacetic acid solution and (b) the stock solution was prepared by dissolving 25 mg of dulcitol in 100 mL of an aqueous trichloroacetic acid solution. [N.B.: For each experiment the average value found in the tissue from rats fed the glucose diet was subtracted from the individual values found in the corresponding tissue in galactose-fed rats to obtain the amount of polyol accumulated.]
The figures under L, N, and D represent the percentage decrease of galactitol accumulation in the tissues of the lens, sciatic nerve, and diaphragm, respectively, for treated rats as compared to untreated rats.

[3] = 15 mg/kg, N.S. = not significant
[4] = 5.2 mg/kg, N.S. = not significant
[5] = 27 mg/kg, N.S. = not significant

inhibition at 0.04 µM (aldose reductase): 59% | inhibition at 10 µM (aldose reductase): 99% | inhibition at 1 µM (aldose reductase): 95% | inhibition at 0.1 µM (aldose reductase): 86%
Structure (SMILES): COC(=O)N(CC(=O)O)C(=O)c1c(F)ccc2c(C(F)(F)F)c(OC)ccc12 [Example 1, N-[[2-fluoro-6-methoxy-5-(trifluoromethyl)-1-naphthalenyl]carbonyl]-N-(methoxycarbonyl)glycine]
% Lowering of Sciatic Nerve Polyol Accumulation, Fructose (%) ([1]; 2 mg/kg): 22% | % Lowering of Sciatic Nerve Polyol Accumulation, Fructose (%) ([1]; 5 mg/kg): 36% | % Lowering of Sciatic Nerve Polyol Accumulation, Fructose (%) ([1]; 10 mg/kg): 72% | % Lowering of Sciatic Nerve Polyol Accumulation, Fructose (%) ([1]; 15 mg/kg): 86% | % Lowering of Sciatic Nerve Polyol Accumulation, Sorbitol (%) ([2]; 2 mg/kg): 38% | % Lowering of Sciatic Nerve Polyol Accumulation, Sorbitol (%) ([2]; 5 mg/kg): 39% | % Lowering of Sciatic Nerve Polyol Accumulation, Sorbitol (%) ([2]; 10 mg/kg): 85% | % Lowering of Sciatic Nerve Polyol Accumulation, Sorbitol (%) ([2]; 15 mg/kg): 85% | results in the sciatic nerve compared with tolrestat (dulcitol accumulation; 10 mg/kg/day vs tolrestat at 9 mg/kg/day, sciatic nerve): comparable results | % Lowering dulcitol accumulation IN VIVO, D (dulcitol accumulation; 5 mg/kg): 52% | % Lowering dulcitol accumulation IN VIVO, D (dulcitol accumulation; 10 mg/kg): 62% | % Lowering dulcitol accumulation IN VIVO, L (dulcitol accumulation; 5 mg/kg, N.S. = not significant): N.S. | % Lowering dulcitol accumulation IN VIVO, L (dulcitol accumulation; 10 mg/kg, N.S. = not significant): N.S. | % Lowering dulcitol accumulation IN VIVO, L (dulcitol accumulation; 14 mg/kg, N.S. = not significant): N.S. | % Lowering dulcitol accumulation IN VIVO, L (dulcitol accumulation; [3]): N.S.

inhibition at 10 µM (aldose reductase): 2% | inhibition at 1 µM (aldose reductase): 0%
Structure (SMILES): COC(=O)N(CC(N)=O)C(=O)c1c(F)ccc2c(C(F)(F)F)c(OC)ccc12 [Example 2, [[[2-Fluoro-6-methoxy-5-(trifluoromethyl)-1-naphthalenyl]carbonyl](methoxycarbonyl)amino]acetamide]
% Lowering dulcitol accumulation IN VIVO, D (dulcitol accumulation; [4]): N.S. | % Lowering dulcitol accumulation IN VIVO, D (dulcitol accumulation; 10.4 mg/kg): 23% | % Lowering dulcitol accumulation IN VIVO, L (dulcitol accumulation; [4]): N.S. | % Lowering dulcitol accumulation IN VIVO, L (dulcitol accumulation; 10.4 mg/kg, N.S. = not significant): N.S.

inhibition at 0.04 µM (aldose reductase): 67% | inhibition at 10 µM (aldose reductase): 99% | inhibition at 1 µM (aldose reductase): 95% | inhibition at 0.1 µM (aldose reductase): 87%
Structure (SMILES): CCOC(=O)N(CC(=O)O)C(=O)c1c(F)ccc2c(C(F)(F)F)c(OC)ccc12 [Example 3, N-(Ethoxycarbonyl)-N-[[2-fluoro-6-methoxy-5-(trifluoromethyl)-1-naphthalenyl]carbonyl]glycine]
% Lowering dulcitol accumulation IN VIVO, D (dulcitol accumulation; 15 mg/kg): 59% | % Lowering dulcitol accumulation IN VIVO, D (dulcitol accumulation; 25 mg/kg): 65% | % Lowering dulcitol accumulation IN VIVO, L (dulcitol accumulation; [3]): N.S. | % Lowering dulcitol accumulation IN VIVO, L (dulcitol accumulation; 25 mg/kg, N.S. = not significant): N.S

Structure (SMILES): COC(=O)N(CC(=O)O)C(=O)c1c(Cl)ccc2c(C(F)(F)F)c(OC)ccc12 [Example 4, N-[[2-Chloro-6-methoxy-5-(trifluoromethyl)-1-naphthalenyl]carbonyl]-N-(methoxycarbonyl)glycine]
inhibition at 0.04 µM (aldose reductase): 57% | inhibition at 10 µM (aldose reductase): 98% | inhibition at 1 µM (aldose reductase): 95% | inhibition at 0.1 µM (aldose reductase): 85% | % Lowering dulcitol accumulation IN VIVO, D (dulcitol accumulation; 26 mg/kg): 68% | % Lowering dulcitol accumulation IN VIVO, L (dulcitol accumulation; 26 mg/kg, N.S. = not significant): N.S.

inhibition at 0.04 µM (aldose reductase): 54% | inhibition at 10 µM (aldose reductase): 97% | inhibition at 1 µM (aldose reductase): 92% | inhibition at 0.1 µM (aldose reductase): 77%
Structure (SMILES): COC(=O)N(CC(=O)O)C(=O)c1c(Br)ccc2c(C(F)(F)F)c(OC)ccc12 [Example 5, N-[[2-Bromo-6-methoxy-5-(trifluoromethyl)-1-naphthalenyl]carbonyl]-N-(methoxycarbonyl)glycine]
% Lowering dulcitol accumulation IN VIVO, D (dulcitol accumulation; 51 mg/kg): 62% | % Lowering dulcitol accumulation IN VIVO, L (dulcitol accumulation; 51 mg/kg, N.S. = not significant): N.S.

inhibition at 0.04 µM (aldose reductase): 56% | inhibition at 0.1 µM (aldose reductase): 83%
Structure (SMILES): COC(=O)N(CC(=O)O)C(=O)c1c(OCC(F)(F)F)ccc2c(C(F)(F)F)c(OC)ccc12 [Example 6, N-[[6-Methoxy-2-(2,2,2-trifluoroethoxy)-5-(trifluoromethyl)-1-naphthalenyl]carbonyl]-N-(methoxycarbonyl)glycine]
% Lowering dulcitol accumulation IN VIVO, D (dulcitol accumulation; 27 mg/kg): 49% | % Lowering dulcitol accumulation IN VIVO, L (dulcitol accumulation; [5]): N.S.

Structure (SMILES): CCOC(=O)N(CC(=O)O)C(=O)c1c(OCC(F)(F)F)ccc2c(C(F)(F)F)c(OC)ccc12 [Example 7, N-(Ethoxycarbonyl)-N-[[6-methoxy-2-(2,2,2-trifluoroethoxy)-5-(trifluoromethyl)-1-naphthalenyl]carbonyl]glycine]
inhibition at 0.04 µM (aldose reductase): 47% | inhibition at 10 µM (aldose reductase): 98% | inhibition at 1 µM (aldose reductase): 90% | inhibition at 0.1 µM (aldose reductase): 78% | % Lowering dulcitol accumulation IN VIVO, D (dulcitol accumulation; 27 mg/kg): 39% | % Lowering dulcitol accumulation IN VIVO, L (dulcitol accumulation; [5]): N.S.

inhibition at 0.04 µM (aldose reductase): 47% | inhibition at 0.1 µM (aldose reductase): 79%
Structure (SMILES): CCOC(=O)N(CC(=O)O)C(=O)c1c(Cl)ccc2c(C(F)(F)F)c(OC)ccc12 [Example 8, N-[[2-Chloro-6-methoxy-5-(trifluoromethyl)-1-naphthalenyl]carbonyl]-N-(ethoxycarbonyl)glycine]
% Lowering dulcitol accumulation IN VIVO, D (dulcitol accumulation; 50 mg/kg): 47% | % Lowering dulcitol accumulation IN VIVO, L (dulcitol accumulation; 50 mg/kg, N.S. = not significant): N.S.

Structure (SMILES): CCOC(=O)N(CC(=O)O)C(=O)c1c(Br)ccc2c(C(F)(F)F)c(OC)ccc12 [Example 9, N-[[2-Bromo-6-methoxy-5-(trifluoromethyl)-1-naphthalenyl]carbonyl]-N-(ethoxycarbonyl)glycine]
inhibition at 0.04 µM (aldose reductase): 52% | inhibition at 10 µM (aldose reductase): 98% | inhibition at 1 µM (aldose reductase): 93% | inhibition at 0.1 µM (aldose reductase): 76% | % Lowering dulcitol accumulation IN VIVO, D (dulcitol accumulation; 43 mg/kg): 27% | % Lowering dulcitol accumulation IN VIVO, L (dulcitol accumulation; 43 mg/kg, N.S. = not significant): N.S.

Structure (SMILES): COc1ccc2c(C(=S)N(C)CC(=O)O)cccc2c1C(F)(F)F [Tolrestat, N-[[6-methoxy-5-(trifluoromethyl)-1-naphthalenyl]thioxo-methyl]-N-methylglycine, reference compound]
% Lowering of Sciatic Nerve Polyol Accumulation, Fructose (%) ([1]; 6 mg/kg): 63% | % Lowering of Sciatic Nerve Polyol Accumulation, Sorbitol (%) ([2]; 6 mg/kg): 80% | % Lowering dulcitol accumulation IN VIVO, L (dulcitol accumulation; 9 mg/kg, N.S. = not significant): N.S.
